Where two headings read alike, the source gives them in different places.

A short description of the series: Levels of PCB 95 and its hydroxylated metabolites in adipose, blood, brain and liver 24 h after a single oral dose (GC-MS/MS). Format: in vivo, mice. As to conditions: 1 mg/kg, single oral PCB 95 1.0 mg/kg, mean ± SD; for concentration at 24 h: mouse, po. The method, then:
Adult male and female wild-type (WT) C57BL/6 mice, KO, and KI mice (4 months old) were exposed to racemic PCB 95. Mice were randomly assigned to exposure groups and received a single oral dose of PCB 95 (1.0 mg/kg) in stripped corn oil (10 mL/kg; lot# A0395699; cat# 801-03-7; Fisher Scientific) via gavage (5–7 mice per group). Control animals received corn oil alone (1–3 mice per group) to assess the potential background contamination with PCB 95. Animals were euthanized 24 h after PCB 95 exposure. Blood was collected from the heart and placed in pre-weighed glass vials with 80 μL of ethylenediaminetetraacetic acid solution (EDTA, 7.5%, w/w). The amount of blood in each vial was determined by weight prior to sample extraction. Adipose, brain, and liver tissues were excised from each animal and individually wrapped in aluminum foil. Samples were stored at −80 °C in separate plastic bags and shipped on dry ice to the University of Iowa for analysis.
PCB 95 and its hydroxylated metabolites were extracted from adipose (0.06 ± 0.01 g), brain (0.19 ± 0.03 g) and liver tissues (0.49 ± 0.07 g) by pressurized liquid extraction (PLE) with a Dionex ASE200 system (Dionex, Sunnyvale, CA, USA).[45] Tissues were homogenized with 2 g of pre-cleaned diatomaceous earth (Thermo Fisher Scientific, Pittsburgh, PA, USA) and placed in extraction cells loaded with 10 g of pre-extracted Florisil (60–100 mesh, Fisher Scientific, Pittsburgh, PA, USA). Tissue samples were then spiked with recovery standards [50 ng of PCB 117 in 50 μL of isooctane and 50 ng of 4′-159 (2′,3,3′,5,5′,6′-hexachlorobiphenyl-4-ol) in 50 μL of methanol]. For ongoing precision recovery (OPR) samples; recovery standard, internal standard, PCB 95, and its metabolites (50 ng each) were spiked to the method blank (DE only) and tissues from control animals. Cells were extracted with hexane–dichloromethane–methanol (48:43:9, v/v/v) at 100 °C and 1500 psi (10 MPa), with preheat equilibration for 6 min, 60% of cell flush volume, and 1 static cycle of 5 min. The extracts were concentrated to approximately 1 mL with a TurboVap II (Biotage, LLC, NC, USA) and transferred to new glass tubes with 1 mL of hexane. The solvent was evaporated to near dryness under a gentle stream of nitrogen, and extracts were redissolved in 1 mL of hexane.
PCB 95 and its hydroxylated metabolites were extracted from whole blood (0.45 ± 0.13 g) using a published liquid–liquid extraction procedure.[29] Briefly, blood samples were thawed, and 3 mL of aqueous 1% KCl solution was added to each sample. Recovery standards (50 ng of PCB 117 in 50 μL of isooctane and 50 ng of 4′-159 in 50 μL of methanol) were spiked to all samples, including OPR samples, before extraction. Subsequently, 1 mL of 6 M HCl, 5 mL of 2-propanol, and 5 mL of 1:1 hexane–MTBE mixture (v/v) were added to the blood samples. The samples were inverted for 5 min and centrifuged at 1690g for 5 min to facilitate the phase separation. Next, the organic phases were transferred to new glass tubes, and the aqueous phases were re-extracted with 3 mL of hexane. Next, three mL of aqueous 1% KCl were added to the combined organic extracts, and samples were inverted and centrifuged as described above. The organic phase was transferred to a new tube, and the aqueous phase was re-extracted with 3 mL of hexane. The combined organic extracts were evaporated to near dryness using a Savant SpeedVac SPD210 (Thermo Scientific, Waltham, MA, US), and each sample was reconstituted with 0.5 mL of hexane.
Five drops of methanol and 0.5 mL of diazomethane (CH2N2; about 0.1 mmol) in diethyl ether were added to the tissue or blood extracts to derivatize the OH-PCBs.[45] Diazomethane rapidly converts the phenolic hydroxyl groups of OH-PCBs to methoxy groups (i.e., −OH → −OCH3). All samples were stored at 4 °C for approximately 16 h. Excess diazomethane evaporated under a gentle stream of nitrogen in a fume hood, followed by adding 0.5 mL of hexane. […]

[1] abbreviates: female, C57BL/6 (wild-type), adipose, FWT, female wildtype mice, read-out: Levels in adipose.
Where [2] appears, read: female, C57BL/6 (wild-type), liver, FWT, female wildtype mice, read-out: Levels in liver.
[3] abbreviates: female, C57BL/6 (wild-type), whole blood, FWT, female wildtype mice, read-out: Levels in blood.
The mark [4] stands for this setting: female, CYP2A6-humanized (KI), liver, FKI, female CYP2A6-humanized mice, read-out: Levels in liver.
Setting [5] is: female, CYP2A6-humanized (KI), whole blood, FKI, female CYP2A6-humanized mice, read-out: Levels in blood.
Where [6] appears, read: female, Cyp2abfgs-null (KO), liver, FKO, female Cyp2abfgs-null mice, read-out: Levels in liver.
Setting [7] is: female, Cyp2abfgs-null (KO), whole blood, FKO, female Cyp2abfgs-null mice, read-out: Levels in blood.
The mark [8] stands for this setting: male, C57BL/6 (wild-type), liver, MWT, male wildtype mice, read-out: Levels in liver.
The mark [9] stands for this setting: male, C57BL/6 (wild-type), whole blood, MWT, male wildtype mice, read-out: Levels in blood.
[10] abbreviates: male, CYP2A6-humanized (KI), liver, MKI, male CYP2A6-humanized mice, read-out: Levels in liver.
The mark [11] stands for this setting: male, CYP2A6-humanized (KI), whole blood, MKI, male CYP2A6-humanized mice, read-out: Levels in blood.
The mark [12] stands for this setting: male, Cyp2abfgs-null (KO), adipose, MKO, male Cyp2abfgs-null mice, read-out: Levels in adipose.
Setting [13] is: male, Cyp2abfgs-null (KO), liver, MKO, male Cyp2abfgs-null mice, read-out: Levels in liver.
Setting [14] is: male, Cyp2abfgs-null (KO), whole blood, MKO, male Cyp2abfgs-null mice, read-out: Levels in blood.
Setting [15] is: female, C57BL/6 (wild-type), brain, FWT, female wildtype mice, read-out: Levels in brain.
The mark [16] stands for this setting: female, CYP2A6-humanized (KI), adipose, FKI, female CYP2A6-humanized mice, read-out: Levels in adipose.
Setting [17] is: female, Cyp2abfgs-null (KO), adipose, FKO, female Cyp2abfgs-null mice, read-out: Levels in adipose.
The mark [18] stands for this setting: male, C57BL/6 (wild-type), adipose, MWT, male wildtype mice, read-out: Levels in adipose.
Where [19] appears, read: male, CYP2A6-humanized (KI), adipose, MKI, male CYP2A6-humanized mice, read-out: Levels in adipose.

Turning to `Oc1c(Cl)cc(Cl)c(-c2cc(Cl)ccc2Cl)c1Cl` [3-103, 2,2',4,5',6-pentachlorobiphenyl-3-ol], the concentration at 24 h under setting [1] was 0.7 ng/g; the concentration at 24 h under setting [2] stood at 1.2 ± 0.4 ng/g; the concentration at 24 h under setting [3] was 1 ± 0.5 ng/g; the concentration at 24 h under setting [4] is 1 ± 0.4 ng/g; the concentration at 24 h under setting [5] was found to be 1.1 ± 1.2 ng/g; the concentration at 24 h under setting [6] is 1.8 ± 0.4 ng/g. In addition, the concentration at 24 h reads like this: under setting [7], 0.8 ± 0.3 ng/g; under setting [8], 0.7 ± 0.3 ng/g; under setting [9], 0.6 ± 0.2 ng/g; under setting [10], 0.6 ± 0.2 ng/g; under setting [11], 0.4 ± 0.1 ng/g; under setting [12], 1.5 ± 0.7 ng/g. The concentration at 24 h was determined as 1 ± 0.4 ng/g under setting [13] and 0.5 ± 0.1 ng/g under setting [14].
As to `Oc1cc(Cl)c(-c2c(Cl)ccc(Cl)c2Cl)cc1Cl` [4'-95], for the setting “FKO, female Cyp2abfgs-null mice”, the Levels in liver stood at 8.5 ng/g tissue. In addition, the concentration at 24 h is 1.4 ± 0.6 ng/g under setting [1]; 0.3 ng/g under setting [15]; 3.7 ± 1.8 ng/g under setting [2]; 2.2 ± 1 ng/g under setting [3]; 1.1 ± 0.3 ng/g under setting [16]; 4.5 ± 2.6 ng/g under setting [4]. The concentration at 24 h under setting [5] was 3.4 ± 2.5 ng/g; the concentration at 24 h under setting [17] was 1.5 ± 0.4 ng/g; the concentration at 24 h under setting [6] worked out at 8.5 ± 3.9 ng/g; the concentration at 24 h under setting [7] was 2.2 ± 1.2 ng/g; the concentration at 24 h under setting [18] was found to be 2.1 ± 0.8 ng/g; the concentration at 24 h under setting [8] is 5.7 ± 2.8 ng/g. Further, the concentration at 24 h by setting is: under setting [9], 3.5 ± 1.1 ng/g; under setting [19], 1.1 ± 0.2 ng/g; under setting [10], 3.8 ± 2.1 ng/g; under setting [11], 1.3 ± 0.7 ng/g; under setting [12], 2.5 ± 1.7 ng/g; (male, Cyp2abfgs-null (KO), brain, MKO, male Cyp2abfgs-null mice, read-out: Levels in brain) 0.2 ng/g. For the same compound, the concentration at 24 h is 7.7 ± 3.6 ng/g under setting [13] and 2.8 ± 0.9 ng/g under setting [14].
In the case of `Oc1c(O)c(Cl)c(-c2cc(Cl)ccc2Cl)c(Cl)c1Cl` [4,5-95, 2,2',3,5',6-pentachlorobiphenyl-4,5-diol], the concentration at 24 h runs as follows: under setting [1], 0.9 ± 0.2 ng/g; under setting [2], 2.2 ± 0.9 ng/g; under setting [3], 5.2 ± 1.9 ng/g; under setting [16], 1 ± 0.6 ng/g; under setting [4], 1.7 ± 0.3 ng/g; under setting [5], 5.2 ± 4.8 ng/g. Further, the concentration at 24 h under setting [17] came out at 1.6 ng/g; the concentration at 24 h under setting [6] was 1.2 ± 0.7 ng/g; the concentration at 24 h under setting [7] turned out to be 1.4 ± 0.7 ng/g; the concentration at 24 h under setting [18] is 0.9 ± 0.2 ng/g; the concentration at 24 h under setting [8] worked out at 3.4 ± 1.2 ng/g; the concentration at 24 h under setting [9] was found to be 9.1 ± 2.6 ng/g. The concentration at 24 h by setting is: under setting [19], 0.7 ± 0.2 ng/g; under setting [10], 1.7 ± 0.8 ng/g; under setting [11], 3.6 ± 1.3 ng/g; under setting [12], 1.9 ± 0.8 ng/g; under setting [13], 2.8 ± 1.6 ng/g; under setting [14], 5.3 ± 3.8 ng/g.
For the compound `Oc1cc(Cl)c(-c2cc(Cl)ccc2Cl)c(Cl)c1Cl` [4-95, 2,2',3,5',6-pentachlorobiphenyl-4-ol], the Levels in liver (FKI, female CYP2A6-humanized mice) amounted to 0.4 ng/g tissue. The concentration at 24 h under setting [1] stood at 0.4 ± 0.1 ng/g; the concentration at 24 h under setting [2] worked out at 1 ± 0.6 ng/g; the concentration at 24 h under setting [3] was found to be 1.5 ± 0.5 ng/g; the concentration at 24 h under setting [4] was 0.4 ± 0.1 ng/g; the concentration at 24 h under setting [5] amounted to 1 ± 0.8 ng/g; the concentration at 24 h under setting [6] was 0.4 ± 0.3 ng/g. In addition, the concentration at 24 h under setting [7] came to 0.4 ± 0.3 ng/g; the concentration at 24 h under setting [18] came to 0.5 ± 0.3 ng/g; the concentration at 24 h under setting [8] came out at 2 ± 0.8 ng/g; the concentration at 24 h under setting [9] turned out to be 3.2 ± 1.1 ng/g; the concentration at 24 h under setting [19] came out at 0.3 ng/g; the concentration at 24 h under setting [10] is 0.8 ± 0.5 ng/g. Besides, the concentration at 24 h is, setting by setting: under setting [11], 1.1 ± 0.6 ng/g; under setting [12], 0.4 ± 0.1 ng/g; under setting [13], 1.1 ± 0.9 ng/g; under setting [14], 1.5 ± 0.8 ng/g.
`Oc1cc(Cl)c(Cl)c(-c2cc(Cl)ccc2Cl)c1Cl` [5-95, 2,2',3,5',6-pentachlorobiphenyl-5-ol]: the concentration at 24 h under setting [1] turned out to be 1.3 ± 1.1 ng/g; the concentration at 24 h under setting [15] turned out to be 0.25 ± 0.02 ng/g; the concentration at 24 h under setting [2] came to 3.8 ± 1.6 ng/g; the concentration at 24 h under setting [3] turned out to be 0.9 ± 0.6 ng/g; the concentration at 24 h under setting [16] came to 1.1 ± 0.4 ng/g; the concentration at 24 h under setting [4] stood at 5.5 ± 3.1 ng/g. Moreover, the concentration at 24 h runs as follows: under setting [5], 1.9 ± 1.6 ng/g; under setting [17], 1 ± 0.4 ng/g; under setting [6], 6.2 ± 1.1 ng/g; under setting [7], 0.7 ± 0.3 ng/g; under setting [18], 1.8 ± 1 ng/g; under setting [8], 3.3 ± 1.6 ng/g. Also, the concentration at 24 h is 1.1 ± 0.3 ng/g under setting [9]; 0.8 ± 0.5 ng/g under setting [19]; 3.3 ± 2.1 ng/g under setting [10]; 0.6 ± 0.3 ng/g under setting [11]; 3.5 ± 4.8 ng/g under setting [12]; 3.7 ± 1.6 ng/g under setting [13]. For the same compound, the concentration at 24 h under setting [14] stood at 0.7 ± 0.3 ng/g.
